Experimental data reported in patent US20150038438A1, “ANTIBACTERIAL COMPOUNDS AND METHODS FOR USE” (PTC THERAPEUTICS, INC., priority 2011, published 2015).
≈ marks a conversion by molar mass, not a printed value. Structures can show the parent of a compound that is named as a salt. Where two headings read alike, the source gives them in different places.

Experiments:
Experiment in all cases: Antibacterial activity, microbroth dilution method (MIC)
[1] = tested on: super sensitive Gram-negative Escherichia coli (E. coli) BAS849; type: cell-based; conditions: Escherichia coli, read-out: MIC, E. coli BAS849
Summary of the method: (§1)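 Broth microdilution against S. aureus 29213, E. coli 25922 and hypersensitive E. coli BAS849. MIC in μg/mL is the lowest drug concentration preventing macroscopically visible growth under test conditions.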

[2] = tested on: Gram-positive Staphylococcus aureus (S. aureus) 29213; type: cell-based; conditions: Staphylococcus aureus, Gram-positive S. aureus 29213
Summary of the method: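 Lowest concentration stopping macroscopically visible growth under test conditions, by broth microdilution, defines the MIC (μg/mL).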

[3] = tested on: control Gram-negative E. coli 25922 strain; type: cell-based, Escherichia coli; conditions: Escherichia coli
Summary of the method: as §1

[4] = super sensitive Gram-negative E. coli BAS849, microbroth dilution

| Structure (SMILES) | MIC [1, 4] | MIC [2] | MIC [3] | MIC [1] |
| --- | --- | --- | --- | --- |
| CC1CCc2cc(N3CCC(N(C)C)C3)ccc2-c2[nH]c(=O)c(C(=O)O)c(O)c21.Cl (stereo not drawn) [Cpd 12, 9-(3-(dimethylamino)pyrrolidin-1-yl)-4-hydroxy-5-methyl-2-oxo-2,5,6,7-tetrahydro-1H-benzo[6,7]cyclohepta[1,2-b]pyridine-3-carboxylic acid hydrochloride] | 1 to 3.5 µg/mL | 12.5 to 150 µg/mL | 12.5 to 150 µg/mL |  |
| CCNCCc1cc2cc3c(cc2n1C)CCCc1c-3[nH]c(=O)c(C(=O)O)c1O.O=C(O)C(F)(F)F [Cpd 165, 10-(2-(ethylamino)ethyl)-4-hydroxy-9-methyl-2-oxo-1,2,5,6,7,9-hexahydropyrido[3′,2′:6,7]cyclohepta[1,2-f]indole-3-carboxylic acid trifluoroacetate] |  | 12.5 to 150 µg/mL | 1 to 3.5 µg/mL | < 1 µg/mL |
| CCCCCNCc1cc2cc3c(cc2n1C)CCCc1c-3[nH]c(=O)c(C(=O)O)c1O.Cl [Cpd 137, 4-hydroxy-9-methyl-2-oxo-10-((pentylamino)methyl)-1,2,5,6,7,9-hexahydropyrido[3′,2′:6,7]cyclohepta[1,2-f]indole-3-carboxylic acid hydrochloride] | < 1 µg/mL | 3.5 to 12.5 µg/mL | < 1 µg/mL |  |
| Cl.Cn1c(CNC2CC2)cc2cc3c(cc21)OCCc1c-3[nH]c(=O)c(C(=O)O)c1O [Cpd 171, 10-((cyclopropylamino)methyl)-4-hydroxy-9-methyl-2-oxo-2,5,6,9-tetrahydro-1H-pyrido[2′,3′:4,5]oxepino[3,2-f]indole-3-carboxylic acid hydrochloride] | < 1 µg/mL | 3.5 to 12.5 µg/mL | < 1 µg/mL |  |
| Cl.O=C(O)c1c(O)c2c([nH]c1=O)-c1ccc(N3C[C@H]4CCCN[C@H]4C3)cc1CCC2 [Cpd 114, 9-((4aR,7aR)-hexahydro-1H-pyrrolo[3,4-b]pyridin-6(2H)-yl)-4-hydroxy-2-oxo-2,5,6,7-tetrahydro-1H-benzo[6,7]cyclohepta[1,2-b]pyridine-3-carboxylic acid hydrochloride] | 1 to 3.5 µg/mL | 12.5 to 150 µg/mL | 3.5 to 12.5 µg/mL |  |
| N[C@@H]1[C@H]2CN(c3ccc4c(c3)NCCc3c-4[nH]c(=O)c(C(=O)O)c3O)C[C@@H]12 [Cpd 97, 9-((cis,cis)-6-amino-3-azabicyclo[3.1.0]hexan-3-yl)-4-hydroxy-2-oxo-2,5,6,7-tetrahydro-1H-benzo[b]pyrido[2,3-d]azepine-3-carboxylic acid hydrochloride] | 1 to 3.5 µg/mL | 12.5 to 150 µg/mL | 3.5 to 12.5 µg/mL |  |
| Cl.Cn1c(CN2CCCC2)cc2cc3c(cc21)CCCc1c-3[nH]c(=O)c(C(=O)O)c1O [Cpd 50, 4-hydroxy-9-methyl-2-oxo-10-(pyrrolidin-1-ylmethyl)-1,2,5,6,7,9-hexahydropyrido[3′,2′:6,7]cyclohepta[1,2-f]indole-3-carboxylic acid hydrochloride] | < 1 µg/mL | 3.5 to 12.5 µg/mL | < 1 µg/mL |  |
| Cl.Cl.Cn1c(CNCCN)cc2cc3c(cc21)OCCc1c-3[nH]c(=O)c(C(=O)O)c1O [Cpd 180, 10-(((2-aminoethyl)amino)methyl)-4-hydroxy-9-methyl-2-oxo-2,5,6,9-tetrahydro-1H-pyrido[2′,3′:4,5]oxepino[3,2-f]indole-3-carboxylic acid dihydrochloride] | 3.5 to 12.5 µg/mL | 12.5 to 150 µg/mL | 12.5 to 150 µg/mL |  |
| Cl.Cl.Cn1c(CNCCN)cc2cc3c(cc21)CCCc1c-3[nH]c(=O)c(C(=O)O)c1O [Cpd 144, 10-(((2-aminoethyl)amino)methyl)-4-hydroxy-9-methyl-2-oxo-1,2,5,6,7,9-hexahydropyrido[3′,2′:6,7]cyclohepta[1,2-f]indole-3-carboxylic acid dihydrochloride] | 3.5 to 12.5 µg/mL | 12.5 to 150 µg/mL | 12.5 to 150 µg/mL |  |
| CCNCc1cc2cc3c(cc2n1C)OCC(C)c1c-3[nH]c(=O)c(C(=O)O)c1O.Cl (stereo not drawn) [Cpd 92, 10-((ethylamino)methyl)-4-hydroxy-5,9-dimethyl-2-oxo-2,5,6,9-tetrahydro-1H-pyrido[2′,3′:4,5]oxepino[3,2-f]indole-3-carboxylic acid hydrochloride] | 1 to 3.5 µg/mL | 12.5 to 150 µg/mL | 3.5 to 12.5 µg/mL |  |
| CCCCCCCCNCc1cc2cc3c(cc2n1C)CCCc1c-3[nH]c(=O)c(C(=O)O)c1O.Cl [Cpd 140, 4-hydroxy-9-methyl-10-((octylamino)methyl)-2-oxo-1,2,5,6,7,9-hexahydropyrido[3′,2′:6,7]cyclohepta[1,2-f]indole-3-carboxylic acid hydrochloride] | < 1 µg/mL | 1 to 3.5 µg/mL | 12.5 to 150 µg/mL |  |
| CN1CCCN(Cc2cc3cc4c(cc3n2C)CCCc2c-4[nH]c(=O)c(C(=O)O)c2O)CC1.Cl.Cl [Cpd 156, 4-hydroxy-9-methyl-10-((4-methyl-1,4-diazepan-1-yl)methyl)-2-oxo-1,2,5,6,7,9-hexahydropyrido[3′,2′:6,7]cyclohepta[1,2-f]indole-3-carboxylic acid dihydrochloride] | < 1 µg/mL | 12.5 to 150 µg/mL | 3.5 to 12.5 µg/mL |  |
| COCC(C)NCc1cc2cc3c(cc2n1C)OCCc1c-3[nH]c(=O)c(C(=O)O)c1O.Cl (stereo not drawn) [Cpd 184, 4-hydroxy-10-(((1-methoxypropan-2-yl)amino)methyl)-9-methyl-2-oxo-2,5,6,9-tetrahydro-1H-pyrido[2′,3′:4,5]oxepino[3,2-f]indole-3-carboxylic acid hydrochloride] | < 1 µg/mL | 12.5 to 150 µg/mL | 3.5 to 12.5 µg/mL |  |
| CC(C)NCc1cc2cc3c(cc2n1C)C(C)CCc1c-3[nH]c(=O)c(C(=O)O)c1O.Cl (stereo not drawn) [Cpd 64, 4-hydroxy-10-((isopropylamino)methyl)-7,9-dimethyl-2-oxo-1,2,5,6,7,9-hexahydropyrido[3′,2′:6,7]cyclohepta[1,2-f]indole-3-carboxylic acid hydrochloride] | 1 to 3.5 µg/mL | 12.5 to 150 µg/mL | 3.5 to 12.5 µg/mL |  |
| N[C@@H]1[C@H]2CN(c3ccc4c(c3)OCCc3c-4[nH]c(=O)c(C(=O)O)c3O)C[C@@H]12 [Cpd 80, 9-((cis,cis)-6-amino-3-azabicyclo[3.1.0]hexan-3-yl)-4-hydroxy-2-oxo-1,2,5,6-tetrahydrobenzo[2,3]oxepino[4,5-b]pyridine-3-carboxylic acid hydrochloride] | < 1 µg/mL | 12.5 to 150 µg/mL | 1 to 3.5 µg/mL |  |
| CN(C)c1ccc2c(c1)OCCc1c-2[nH]c(=O)c(C(=O)O)c1O [Cpd 76, 9-(dimethylamino)-4-hydroxy-2-oxo-1,2,5,6-tetrahydrobenzo[2,3]oxepino[4,5-b]pyridine-3-carboxylic acid] | < 1 µg/mL | 12.5 to 150 µg/mL (≈ 39.5 to 474 µM) | 12.5 to 150 µg/mL (≈ 39.5 to 474 µM) |  |
| CNCCNCc1cc2cc3c(cc2n1C)OCCc1c-3[nH]c(=O)c(C(=O)O)c1O.Cl.Cl [Cpd 181, 4-hydroxy-9-methyl-10-(((2-(methylamino)ethyl)amino)methyl)-2-oxo-2,5,6,9-tetrahydro-1H-pyrido[2′,3′:4,5]oxepino[3,2-f]indole-3-carboxylic acid dihydrochloride] | 12.5 to 150 µg/mL | 12.5 to 150 µg/mL | 12.5 to 150 µg/mL |  |
| CNCc1cc2cc3c(cc2n1C)CCCCc1c-3[nH]c(=O)c(C(=O)O)c1O.Cl [Cpd 58, 4-hydroxy-10-methyl-11-((methylamino)methyl)-2-oxo-2,5,6,7,8,10-hexahydro-1H-pyrido[3′,2′:7,8]cycloocta[1,2-f]indole-3-carboxylic acid hydrochloride] | < 1 µg/mL | 3.5 to 12.5 µg/mL | < 1 µg/mL |  |
